Experimental findings from ChEMBL document CHEMBL1201862, “PubChem BioAssay data set” (2004) are described below.

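How tested: cells in 96-well plates exposed to compound for 48 hours at five concentrations. GI50 = concentration required for 50% inhibition of growth.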 Active and inactive are the calls of the source. Cut-off read from the data, not from the text of the source: active = GI50 up to about 1.1 µM and inactive = higher.

Test systems include OVCAR-5; SW-620; CAKI-1; SNB-19; 786-0; KM12; UACC-257; HCT-116; NCI-H23; A498; SK-MEL-5; HL-60; LOX IMVI; RXF 393; A549; UO-31; CCRF-CEM; NCI-H226; OVCAR-8.
Test in all cases: inhibition of tumour cell growth, NCI panel, 48 h

As to `CCN(C(C)=N)c1ccccc1`, the GI50 in the test on OVCAR-5 is > 100 µM (inactive); in the test on SW-620 it was > 100 µM (inactive); in the test with CAKI-1, 95.1 µM (inactive); with SNB-19, 78.7 µM (inactive); in the test with 786-0 it was > 100 µM (inactive); in the test on KM12, > 100 µM (inactive). In addition, the GI50 with UACC-257 is 17.2 µM (inactive); with HCT-116, 48.9 µM (inactive); in the test on NCI-H23, 54.8 µM (inactive); in the test with A498, 37.5 µM (inactive); with SK-MEL-5 it was 35.1 µM (inactive); in the test with HL-60, 32.8 µM (inactive). Further, the GI50 in the test on LOX IMVI is > 100 µM (inactive); in the test on RXF 393, > 100 µM (inactive); in the test with A549, > 100 µM (inactive); with UO-31 it was 39 µM (inactive); in the test with CCRF-CEM it was > 100 µM (inactive); in the test on NCI-H226, 56.8 µM (inactive). Further, the GI50 with OVCAR-8 is > 100 µM (inactive).

Turning to `CC(=O)NNc1nc(C)c(C(/C=C/c2ccc(Cl)cc2)=N/NC(=O)C[N+](C)(C)C)s1`, the GI50 in the test on OVCAR-5, in the test with SW-620, in the test on CAKI-1, in the test with SNB-19, with 786-0 and in the test on KM12 was > 100 µM (inactive) each time. Also, the GI50 in the test on UACC-257, with HCT-116, with NCI-H23, with A498, in the test on SK-MEL-5 and in the test with HL-60 was > 100 µM (inactive) in each case. The GI50 with LOX IMVI, in the test with RXF 393, with A549, in the test with UO-31, in the test with CCRF-CEM and in the test on NCI-H226 was > 100 µM (inactive) each time.

Turning to `COc1cc(C(C)c2cc3c(cc2OCCNC(=O)COc2cc4c(cc2C(C)c2cc(OC)c(OC)c(OC)c2)OCO4)OCO3)cc(OC)c1OC` (stereo unspecified), the GI50 is 6.38 µM (inactive) with OVCAR-5; > 100 µM (inactive) in the test with SW-620; > 100 µM (inactive) with CAKI-1; > 100 µM (inactive) with SNB-19; 49.8 µM (inactive) in the test on 786-0; > 100 µM (inactive) with KM12. In addition, the GI50 in the test on UACC-257 was 6.56 µM (inactive); with HCT-116, 87.9 µM (inactive); with NCI-H23, > 100 µM (inactive); in the test with A498, > 100 µM (inactive); in the test on SK-MEL-5 it was > 100 µM (inactive); in the test on HL-60, > 100 µM (inactive). In addition, the GI50 in the test with LOX IMVI was 42.3 µM (inactive); in the test on RXF 393, > 100 µM (inactive); in the test on A549, > 100 µM (inactive); with UO-31 it was > 100 µM (inactive); with CCRF-CEM, 30.5 µM (inactive); in the test with NCI-H226, > 100 µM (inactive). The GI50 in the test on OVCAR-8 was 49.5 µM (inactive).

As for `COc1cc2c(cc1O)C(C)Cc1cc3c(cc1N(C)CC2)OCO3` (stereo unspecified), the GI50 is 23.1 µM (inactive) in the test with OVCAR-5; 3.74 µM (inactive) in the test with SW-620; 12.1 µM (inactive) with CAKI-1; 7.4 µM (inactive) in the test with SNB-19; 4.35 µM (inactive) with 786-0; 4.15 µM (inactive) with KM12. In addition, the GI50 was 6.15 µM (inactive) in the test on UACC-257; 4.04 µM (inactive) in the test on HCT-116; 4.07 µM (inactive) in the test on NCI-H23; 13.2 µM (inactive) with A498; 2.59 µM (inactive) with SK-MEL-5; 4.61 µM (inactive) in the test on HL-60. Also, the GI50 is 5.68 µM (inactive) in the test on LOX IMVI; 1.77 µM (inactive) in the test with RXF 393; 3.94 µM (inactive) with A549; 6.41 µM (inactive) in the test on UO-31; 4.59 µM (inactive) with CCRF-CEM; 6.65 µM (inactive) in the test on NCI-H226. Further, the GI50 in the test with OVCAR-8 is 9.25 µM (inactive).

For `CCC(=O)OC[n+]1ccc2c(C)c3[nH]c4ccc(OC)cc4c3c(C)c2c1`, the GI50 with OVCAR-5 is 0.299 µM (active); in the test on SW-620 it was 0.0288 µM (active); in the test with CAKI-1 it was 0.188 µM (active); in the test with SNB-19 it was 1.57 µM (inactive); with 786-0, 0.176 µM (active); with KM12, 0.0875 µM (active). Moreover, the GI50 in the test with UACC-257 is 0.7 µM (active); with HCT-116 it was 0.0182 µM (active); with NCI-H23, 0.22 µM (active); in the test on A498, 1.06 µM (active); in the test with SK-MEL-5 it was 0.728 µM (active); in the test with HL-60, 1.66 µM (inactive). The GI50 in the test on LOX IMVI is 0.0927 µM (active); in the test on RXF 393 it was 0.166 µM (active); with A549 it was 0.135 µM (active); in the test with CCRF-CEM it was 0.0685 µM (active); in the test on NCI-H226, 0.348 µM (active); in the test on OVCAR-8, 0.0755 µM (active).

Consider `COc1ccc(C(=O)OC2C=COC(C)C2OC(=O)c2ccc(OC)cc2)cc1` (stereo unspecified), for which the GI50 in the test on OVCAR-5 is 77.1 µM (inactive); in the test with SW-620, 15.6 µM (inactive); with CAKI-1, 28.8 µM (inactive); with SNB-19, 41.5 µM (inactive); with 786-0 it was 28.8 µM (inactive); in the test with KM12, 19.1 µM (inactive). For the same molecule, the GI50 with UACC-257 was 21 µM (inactive); with HCT-116, 10.2 µM (inactive); in the test on NCI-H23, 16.4 µM (inactive); in the test on A498, > 100 µM (inactive); in the test on SK-MEL-5 it was 16.7 µM (inactive); in the test with HL-60, 10.6 µM (inactive). For the same molecule, the GI50 in the test on LOX IMVI was 14.7 µM (inactive); in the test on RXF 393 it was 14.6 µM (inactive); in the test on A549 it was 48.1 µM (inactive); in the test on UO-31, 45.4 µM (inactive); with CCRF-CEM, 7 µM (inactive); in the test on NCI-H226, 38.8 µM (inactive). Moreover, the GI50 with OVCAR-8 is 23.6 µM (inactive).

For `CC1OC(n2ccc3ccc([N+](=O)[O-])cc32)C(O)C(O)C1O` (stereo unspecified), the GI50 in the test on OVCAR-5, with SW-620, with CAKI-1, in the test with SNB-19, in the test with 786-0 and in the test on KM12 was > 100 µM (inactive) throughout. Also, the GI50 in the test with UACC-257, with HCT-116, in the test on NCI-H23, in the test with A498, in the test on SK-MEL-5 and in the test on HL-60 was > 100 µM (inactive) each time. In addition, the GI50 in the test with LOX IMVI, in the test with RXF 393, in the test with A549, in the test with UO-31, with CCRF-CEM and in the test on NCI-H226 was > 100 µM (inactive) throughout. Further, the GI50 in the test with OVCAR-8 was > 100 µM (inactive).

In the case of `CC1=CCC[C@@]2(C)C(CC[C@@H]2C(C)/C=C/C(C)C)c2ccc(cc2C(=O)O)C[C@@H](O)CC1` (stereo partly specified), the GI50 was 16.4 µM (inactive) in the test with OVCAR-5; 14.9 µM (inactive) in the test with SW-620; 17 µM (inactive) with CAKI-1; 5.2 µM (inactive) in the test on SNB-19; 14.6 µM (inactive) in the test on 786-0; 11 µM (inactive) in the test on KM12. Besides, the GI50 in the test with UACC-257 is 16.6 µM (inactive); with HCT-116, 5.21 µM (inactive); in the test with NCI-H23 it was > 10 µM (inactive); in the test on A498, 20.2 µM (inactive); with SK-MEL-5, 3.59 µM (inactive); with HL-60, 9.79 µM (inactive). For the same molecule, the GI50 in the test on LOX IMVI is 4.55 µM (inactive); in the test with RXF 393, 15.9 µM (inactive); in the test on A549, 6.14 µM (inactive); with UO-31, 15.7 µM (inactive); with CCRF-CEM, 5.09 µM (inactive); in the test with NCI-H226, 18.5 µM (inactive). Moreover, in the test on OVCAR-8, the GI50 is 15.2 µM (inactive).

On to `COC(=O)C1N=CSCC1(C)O` (stereo unspecified), for which the GI50 with OVCAR-5, in the test with SW-620, in the test on CAKI-1, in the test on SNB-19, in the test with 786-0 and in the test with KM12 was > 100 µM (inactive) throughout. The GI50 in the test on UACC-257, in the test with HCT-116, in the test on NCI-H23, with A498, in the test on SK-MEL-5 and in the test on HL-60 was > 100 µM (inactive) each time. The GI50 in the test on LOX IMVI, in the test with RXF 393, with A549, in the test on UO-31, in the test with CCRF-CEM and in the test on NCI-H226 was > 100 µM (inactive) each time. Besides, the GI50 in the test on OVCAR-8 was > 100 µM (inactive).

For `O=[N+]([O-])c1nccn1CC(O)c1ccccc1` (stereo unspecified), the GI50 in the test on OVCAR-5, in the test with SW-620, in the test on CAKI-1, with SNB-19, with 786-0 and in the test on KM12 was > 100 µM (inactive) throughout. Moreover, the GI50 in the test on UACC-257, with NCI-H23, in the test on A498, with SK-MEL-5, with HL-60 and in the test with LOX IMVI was > 100 µM (inactive) each time. For the same molecule, the GI50 in the test with RXF 393, in the test on A549, in the test on UO-31, in the test with CCRF-CEM, with NCI-H226 and with OVCAR-8 was > 100 µM (inactive) throughout.

Regarding `COC(=O)[C@@]1(O)CC(C)C=C1C=O` (stereo partly specified), the GI50 in the test with OVCAR-5 was > 100 µM (inactive); in the test on SW-620, 40.1 µM (inactive); with CAKI-1, > 100 µM (inactive); in the test with SNB-19 it was > 100 µM (inactive); in the test with 786-0, 60.5 µM (inactive); in the test on KM12, 67.5 µM (inactive). The GI50 with UACC-257 is > 100 µM (inactive); in the test on HCT-116, 20.8 µM (inactive); in the test with NCI-H23, > 100 µM (inactive); in the test on A498, > 100 µM (inactive); with SK-MEL-5, > 100 µM (inactive); with HL-60, 22.1 µM (inactive). In addition, the GI50 in the test on LOX IMVI is 53.5 µM (inactive); in the test on RXF 393 it was 15.8 µM (inactive); with A549, 24.6 µM (inactive); with UO-31, > 100 µM (inactive); with CCRF-CEM it was 25.3 µM (inactive); with NCI-H226, > 100 µM (inactive). In addition, the GI50 with OVCAR-8 is > 100 µM (inactive).
